Assay results taken from patent US11286238B2, “Melatonin derivatives, method thereof, and use thereof” (Xiamen Nuokangde Biological Technology Co., Ltd., priority 2020, dated 2022).

What was measured:
[1] = Solubility determination in water; format: physicochemical
Protocol: In order to evaluate solubility of a new melatonin derivative of Embodiment 1, solubility of Mel and Mels were tested. […] Therefore, the solubility of Mels is nearly 700 times (695 times) the solubility of Mel (FIG. 4). Good water solubility of Mels can greatly improve application and greatly contribute to the research of this molecule in the field of medicine and biology.

mice = experiment: Sleep experiment in sodium pentobarbital mouse sleep models; format: in vivo
Protocol: Mouse sleep models were established by injecting 300 μL 1% sodium pentobarbital solution into mice, and then dividing the mice into three groups. Each group comprised five mice. A first group of the three groups were injected with 100 μL normal saline as a control group, a second group of the three groups were injected with 100 μL natural unmodified melatonin (Mel) solution, a concentration of Mel was 86 μM (86 μmol/L) or 860 nM (860 nmol/L), and a third group of the three groups was injected with modified melatonin (Mels) solution with the same concentration and volume as that of the second group. A sleep duration began to be recorded one minute after a loss of righting reflex, and recording ended when the righting reflex returned.

B16F10 cell lines = experiment: Cytotoxicity assay (CCK-8); format: cell-based; settings: for Effect on cell proliferation at a low concentration / Effect on cell proliferation rate at higher concentrations: B16F10, 24 hours; for Effect on cell proliferation at a low concentration: CCK-8, absorbance 450 nm; for Effect on cell proliferation rate at higher concentrations: CCK-8, 5 mM and 10 mM
Protocol: B16F10 cell lines were incubated into a plate with 96 wells. After cell adherence, a Mel solution with different concentrations or a Mels solution with different concentrations was respectively added to one of the 96 wells in turn. Final concentrations of the Mel solution or the Mels solution were respectively 10 μM (10 μmol/L), 100 μM (100 μmol/L), 1 mM (1 mmol/L), 5 mM (5 mmol/L), and 10 mM (10 mmol/L). After incubating for 24 hours, CCK-8 (Cell Counting Kit-8) was added into each one of the 96 wells. Absorbance of the Mel solution and the Mels solution was measured at 450 nm.

C57/B6 mice = experiment: Safety verification in vivo (body weight and diet changes); set-up: species or system mouse; settings: intraperitoneal
Protocol: To test a safety of Mels of Embodiment 1 in vivo, Mel, Mels, or saline was intraperitoneally injected into mice. Using C57/B6 mice (about 18 g), the mice were randomly divided into three groups: a control group, a Mel group, and a Mels group. Then, 200 μL of normal saline, Mel and Mels solution (dissolving Mel and Mels in saline containing 5% DMSO, 10 mmol/L) were respectively intraperitoneally injected into the mice. The injection process was repeated three times at days 2, 6, and 10, and body weight changes and diet changes of mice were recorded. […] In short, Mels has lower toxicity and good safety in vitro and in vivo.

[2] = as disclosed in SCCS Opinion on MLT, 23 Mar. 2010; cited from earlier work

| Structure (SMILES) | solubility ([1]; in 100 mL water) [mg/mL] | Solubility of Mels relative to solubility of Mel ([1]; water solubility ratio versus melatonin) [times] | Sleep time of mice (mice; mice given 300 μL 1% sodium pentobarbital, 100 μL of 86 μM or 860 nM solution injected, prolonged from 1 hour) [h] | Effect on sleep compared with Mel (mice; same concentration and volume as Mel (86 μM or 860 nM, 100 μL)) | Effect on cell proliferation at a low concentration (B16F10 cell lines) | Effect on cell proliferation rate at higher concentrations (B16F10 cell lines) | Cytotoxicity on cells compared with Mel (B16F10 cell lines; B16F10, at an even higher concentration) | Effect on body weights and diets of the mice (C57/B6 mice; 200 μL of 10 mmol/L in saline with 5% DMSO, days 2, 6 and 10, versus control group and Mel group) | Safety in vivo (C57/B6 mice; C57/B6 mice, 10 mmol/L, 200 μL, three injections) | Solubility in 100 mL water [2] [g] |
| --- | --- | --- | --- | --- | --- | --- | --- | --- | --- | --- |
| COc1ccc2c(c1)c(CCNC(C)=O)cn2CCCCS(=O)(=O)[O-].[Na+] [Mels, 4-(3-(2-acetamidoethyl)-5-methoxy-1H-indol-1-yl) butane-1-sulfonate] | 1600 | 695 | 3 | same effect as Mel | no effects on cell proliferation | little affected on cell proliferation rate | much smaller than that of Mel | no significant effect | good safety in vivo |  |
| COc1ccc2[nH]cc(CCNC(C)=O)c2c1 [Mel, melatonin] |  |  |  |  | no effects on cell proliferation | affected cell proliferation rate |  |  |  | 0.2 |
